One series deals with T1, 5-HT2B receptor (Homo sapiens, UniProt P41595).
T1 construct: expressed in transfected cells; host or cells: HEK293, stably transfected
Kind of series: 5-HT2B receptor radioligand binding ([3H]LSD). Conditions: read-out: 5-HT2B Receptor Ki.

The next series relates to Sprague Dawley rats. Briefly: Forced swim test (FST) in rats. Conditions: for Time Immobile: rat FST, 10% DMSO in saline; for Time Immobile / effect on immobility in FST: 23.5 hours after a single dose; for effect on immobility in FST: rat. The class given is in vivo, rat. How it is done:
Compound 1 induced antidepressant-like effects in the forced swim test (FST) in rats with a 23.5-h pre-treatment time (FIG. 2).
Animals. Male Sprague Dawley rats, aged 9-10 weeks, were used in this experiment. Animals were housed in groups of 2 under controlled temperature (22±3° C.) and relative humidity (30-70%) conditions, with 12-hour light/dark cycles, and with ad libitum food and water. This study was carried out in strict accordance with the requirements of the Committee for the Purpose of Control and Supervision of Experiments on Animals (CPCSEA), India. All efforts were made to minimize suffering.
Forced Swim Test (FST). […] Rats were handled for about 2 min daily for the 5 days prior to the beginning of the experimental procedure. On the first day of the experiment (i.e., Day 0), post randomization, training swim sessions (Swim 1) were conducted between 12:00 and 18:00 h with all animals by placing rats in individual glass cylinders (46 cm tall×20 cm in diameter) containing 23-25° C. water 30 cm deep for 15 minutes. At the conclusion of Swim 1, animals were dried with paper towels, placed in heated drying cages for 15 minutes, and then returned to their home cages. Animals were then administered the appropriate drug or vehicle treatment(s), as described above. For clarity, a compound administration time of 23.5 h before Swim 2 means 0.5 h after the start of Swim 1 and 0.25 h after the completion of Swim 1 (i.e., immediately after return to the home cage). On Day 1 (i.e., 24 h after start of Swim 1), animals performed the test swim (Swim 2) for a period of 5 min but otherwise under the same conditions as Swim 1. During all swim sessions, the water was changed between each animal.
Behavioral scoring was conducted by observers who were blind to the treatment groups. Animals were continuously observed during Swim 2 and the total time spent engaging in the following behaviors was recorded: immobile, swimming, and climbing. A rat was judged to be immobile when it remained floating in the water without struggling and was making only those movements necessary to keep its head above water. A rat was judged to be swimming when it made active swimming motions, more than necessary to merely maintain its head above water (e.g., moving around in the cylinder). A rat was judged to be climbing when it made active movements with its forepaws in and out of the water, usually directed against the walls.
Statistical Analysis. The data points shown represent the mean±standard error of the mean (SEM). Analysis was performed using GraphPad Prism 6. Comparisons between groups were performed using the one-way analysis of variance (ANOVA), followed by Dunnett's test for comparisons to vehicle.
Additional disclosed compounds were tested in the forced swim test (FST) in rats according to the procedure described in Example 58 (compounds 18 and 19 administered in 10% DMSO in saline).

In series [1] the target is T2, Alpha2A adrenergic receptor (Homo sapiens, UniProt P08913).
T2 construct: expressed in transfected cells
T2 sequence (P08913 1-465): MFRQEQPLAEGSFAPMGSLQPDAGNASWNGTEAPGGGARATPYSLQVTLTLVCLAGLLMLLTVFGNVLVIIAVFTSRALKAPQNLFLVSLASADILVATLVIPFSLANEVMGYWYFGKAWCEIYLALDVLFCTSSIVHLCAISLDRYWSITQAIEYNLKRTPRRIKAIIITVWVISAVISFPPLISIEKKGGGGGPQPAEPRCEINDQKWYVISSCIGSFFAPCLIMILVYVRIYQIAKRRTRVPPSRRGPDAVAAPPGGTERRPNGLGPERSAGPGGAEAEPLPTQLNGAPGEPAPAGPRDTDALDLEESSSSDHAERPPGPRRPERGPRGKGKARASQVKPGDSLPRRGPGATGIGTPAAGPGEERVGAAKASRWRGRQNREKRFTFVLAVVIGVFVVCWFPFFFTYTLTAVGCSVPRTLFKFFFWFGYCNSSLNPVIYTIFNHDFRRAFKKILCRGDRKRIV
Briefly: Ca2+ flux functional assay at Alpha2A. It counts as cell-based. Conditions: for maximal efficacy at Alpha2A: "higher" is compared to the N-methyl compound LSD; for Emax: agonist, Ca2+ flux, max dose, read-out: Alpha 2A % Act @ Max Dose. The method, then:
Functional Assays at Adrenergic and Dopamine Receptors. Agonist activity at Alpha1A, Alpha2A, D1, and D2 receptors was determined using a FLIPR Ca^2+ flux assay at WuXi AppTec (Hong Kong) Limited according to their standard protocols. Briefly, stably transfected cells expressing the receptor of interest were grown and plated in a 384 well plate and incubated at 37° C. and 5% CO2 overnight. A solution of 250 mM probenecid in 1 mL FLIPR assay buffer was prepared fresh. This was combined with a fluorescent dye (Fluo-4 Direct™) to make a final assay concentration of 2.5 mM. […] The fluorescent dye was then added to the assay plate along with assay buffer to a final volume of 40 μL. The cell plate was incubated for 50 min at 37° C. and 5% CO2 and placed into the FLIPR Tetra along with the compound plate. 10 μL of references and compounds were then transferred from the compound plate into the cell plate and the fluorescent signal was read.

The nature of the next series: in vitro. The note with it: human, microsomes, role: substrate, metabolite 83 formed in HLM, read-out: Metabolite Formation (percent formation of metabolite 83). It counts as in vitro ADME, human. The method, then:
The ability of deuteration in compound 68 to attenuate formation of metabolite 83 compared to the same transformation of the non-deuterated compound 18 was also determined.
HLM Stability. Pooled HLM from adult male and female donors (Corning 452117) were used.

Entries after “also recorded” stand apart in the source; their conditions may differ. Where two headings read alike, the source gives them in different places.

T1 sequence (P41595 whole entry): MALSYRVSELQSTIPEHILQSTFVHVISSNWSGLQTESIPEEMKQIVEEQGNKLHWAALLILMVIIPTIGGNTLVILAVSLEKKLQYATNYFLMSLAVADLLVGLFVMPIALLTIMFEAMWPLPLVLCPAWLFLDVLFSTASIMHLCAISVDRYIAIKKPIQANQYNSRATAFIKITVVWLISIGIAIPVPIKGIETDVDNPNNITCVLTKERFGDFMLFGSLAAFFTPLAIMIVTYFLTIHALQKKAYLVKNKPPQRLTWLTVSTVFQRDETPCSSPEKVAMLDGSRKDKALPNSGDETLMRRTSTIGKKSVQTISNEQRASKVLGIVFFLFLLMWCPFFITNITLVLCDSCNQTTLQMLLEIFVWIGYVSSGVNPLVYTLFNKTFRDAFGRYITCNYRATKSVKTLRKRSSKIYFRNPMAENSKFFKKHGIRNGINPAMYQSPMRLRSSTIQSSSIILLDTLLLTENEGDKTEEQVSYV

As to `CCN(CC)C(=O)[C@@H]1C=C2c3cccc4[nH]cc(c34)C[C@H]2N(Cc2ccc(OC)cc2)C1` [Compound 19, (6aR,9R)—N,N-diethyl-7-(4-methoxybenzyl)-4,6,6a,7,8,9-hexahydroindolo[4,3-fg]quinoline-9-carboxamide], the Ki on 5-HT2B receptor stood at 0.225 µM. The “Time Immobile” value in the series on Sprague Dawley rats (0.1 mg/kg SC) is 76.4 s; in the series with Sprague Dawley rats (0.32 mg/kg SC), 79.2 s; in the series on Sprague Dawley rats (1 mg/kg SC), 96.0 s; with Sprague Dawley rats (3.2 mg/kg SC), 166.5 s. Further, the “effect on immobility in FST” value in the series with Sprague Dawley rats is “maximal effects equivalent to hallucinogenic compounds and the positive control; also recorded: apparent therapeutic action of compound 19 decreased at higher doses”.
As to `CCN(CC)C(=O)[C@@H]1C=C2c3cccc4[nH]cc(c34)C[C@H]2N(Cc2ccc(Cl)cc2)C1` [Compound 50, (6aR,9R)-7-(4-chlorobenzyl)-N,N-diethyl-4,6,6a,7,8,9-hexahydroindolo[4,3-fg]quinoline-9-carboxamide], the Ki at 5-HT2B receptor was 0.0537 µM.
Turning to `CCCN1C[C@H](C(=O)NC(CC)CC)C=C2c3cccc4[nH]cc(c34)C[C@H]21` [Compound 6, (6aR,9R)—N-(pentan-3-yl)-7-propyl-4,6,6a,7,8,9-hexahydroindolo[4,3-fg]quinoline-9-carboxamide], the “maximal efficacy at Alpha2A” value in series [1] is listed as “substantially higher maximal efficacy”.
`CCN(CC)C(=O)[C@@H]1C=C2c3cccc4[nH]cc(c34)C[C@H]2N(Cc2ccccc2OC)C1` [Compound 10, (6aR,9R)—N,N-diethyl-7-(2-methoxybenzyl)-4,6,6a,7,8,9-hexahydroindolo[4,3-fg]quinoline-9-carboxamide]: in series [1], the “maximal efficacy at Alpha2A” value is listed as “very low efficacy agonists” and the Emax came out at 36.5%.
Turning to `CCN(CC)C(=O)[C@@H]1C=C2c3cccc4[nH]cc(c34)C[C@H]2N(Cc2ccc(F)cc2)C1` [Compound 49, (6aR,9R)—N,N-diethyl-7-(4-fluorobenzyl)-4,6,6a,7,8,9-hexahydroindolo[4,3-fg]quinoline-9-carboxamide], the Ki on 5-HT2B receptor turned out to be 0.0169 µM.
`CCN(CC)C(=O)[C@@H]1C=C2c3cccc4[nH]cc(c34)C[C@H]2N(CCCF)C1` [Compound 2, (6aR,9R)—N,N-diethyl-7-(3-fluoropropyl)-4,6,6a,7,8,9-hexahydroindolo[4,3-fg]quinoline-9-carboxamide]: in series [1], the “maximal efficacy at Alpha2A” value is given as “substantially higher maximal efficacy” and the Emax was 65%.
Regarding `CCN(C)C(=O)[C@@H]1C=C2c3cccc4[nH]cc(c34)C[C@H]2N(Cc2ccccc2)C1` [Compound 85, (6aR,9R)-7-benzyl-N-ethyl-N-methyl-4,6,6a,7,8,9-hexahydroindolo[4,3-fg]quinoline-9-carboxamide], the Ki at 5-HT2B receptor came to 0.0324 µM.
For the compound `CCCN1C[C@H](C(=O)N2[C@@H](C)C[C@@H]2C)C=C2c3cccc4[nH]cc(c34)C[C@H]21` [Compound 4, ((2S,4S)-2,4-dimethylazetidin-1-yl)((6aR,9R)-7-propyl-4,6,6a,7,8,9-hexahydroindolo[4,3-fg]quinolin-9-yl)methanone], in series [1], the “maximal efficacy at Alpha2A” value was “substantially higher maximal efficacy” and the Emax stood at 103%.
On to `CCCN1C[C@H](C(=O)N(CC)CC)C=C2c3cccc4[nH]cc(c34)C[C@H]21` [Compound 1, (6aR,9R)—N,N-diethyl-7-propyl-4,6,6a,7,8,9-hexahydroindolo[4,3-fg]quinoline-9-carboxamide], for which, in series [1], the “maximal efficacy at Alpha2A” value is “substantially higher maximal efficacy” and the Emax was 58.3%. In addition, the “immobility time in FST” value in the series with Sprague Dawley rats (highest dose, 23.5 h pre-treatment, relative to vehicle control, FIG. 2) is reported as “reduced immobility time relative to vehicle control”.
For `CCN(CC)C(=O)[C@@H]1C=C2c3cccc4[nH]cc(c34)C[C@H]2N(Cc2cccc(OC)c2)C1` [Compound 18, (6aR,9R)—N,N-diethyl-7-(3-methoxybenzyl)-4,6,6a,7,8,9-hexahydroindolo[4,3-fg]quinoline-9-carboxamide], the Ki on 5-HT2B receptor was found to be 0.188 µM. In addition, the “Time Immobile” value is 56.7 s in the series with Sprague Dawley rats (0.1 mg/kg SC) and 61.2 s in the series on Sprague Dawley rats (0.32 mg/kg SC). The “effect on immobility in FST” value in the series with Sprague Dawley rats is “maximal effects equivalent to hallucinogenic compounds and the positive control”. Besides, the metabolised in the series “in vitro” (T = 0) came out at 0.1%; in “in vitro” (T = 5) it was 3.4%; in “in vitro” (T = 15), 6.1%; in “in vitro” (T = 30), 7.6%; in the series “in vitro” (T = 45) it was 8.1%; in the series “in vitro” (T = 60) it was 8.4%.
For the compound `CCCN1C[C@H](C(=O)N[C@H](C)CC)C=C2c3cccc4[nH]cc(c34)C[C@H]21` [Compound 3, (6aR,9R)—N—((R)-sec-butyl)-7-propyl-4,6,6a,7,8,9-hexahydroindolo[4,3-fg]quinoline-9-carboxamide], in series [1], the “maximal efficacy at Alpha2A” value was “substantially higher maximal efficacy” and the Emax worked out at 96.8%.
`CCN(CC)C(=O)[C@@H]1C=C2c3cccc4[nH]cc(c34)C[C@H]2N(CCc2ccccc2OC)C1` [Compound 11, (6aR,9R)—N,N-diethyl-7-(2-methoxyphenethyl)-4,6,6,7,8,9-hexahydroindolo[4,3-fg]quinoline-9-carboxamide]: the “maximal efficacy at Alpha2A” value in series [1] is “very low efficacy agonists”.

The values are drawn from patent US20260317319A1, “NOVEL ERGOLINES AND METHODS OF TREATING MOOD DISORDERS” (Gilgamesh Pharma Inc., priority 2023, published 2026).
